One assay addresses T1, PDGF-Ra (Homo sapiens, UniProt P16234).
T1 construct: host or cells: G-292 human osteosarcoma cells
As to the kind of experiment: Inhibitory activity against PDGF-Ra phosphorylation by PDGF-AA stimulation using G292. Type of assay: cell-based. The conditions noted are these: for IC50: > means inhibition at indicated concentration not more than 50%, < and << not less than 50%, read-out: PDGF (E) IC50; for inhibition at 0.1 µM: G292, figure within parentheses in >100( ), at 100 nM, read-out: PDGF (E) inhibition (%) at 100 nM. The method, boiled down:
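Human osteosarcoma G-292, 0.1% FBS o/n; cpd (DMSO) 1 h 37 °C; PDGF-AA 50 ng/ml 5 min; lyse 20 min RT; PY-20 capture 4 °C o/n; anti-PDGF-Ra + HRP-GAR; OD450.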

In a further assay the target is T2, c-kit (Homo sapiens, UniProt P10721).
T2 construct: MO7e (human megakaryocytic leukemia cell line) which had been arrested for 20 hr; endogenous in cells; host or cells: MO7e human megakaryocytic leukemia cell line
Description: Inhibitory activity against c-kit autophosphorylation (MO7e cells, h-SCF). Type of assay: cell-based. The conditions noted are these: MO7e cells, 50 ng/ml h-SCF; read-out: c-kit IC50. The method, boiled down:
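Phospho-c-kit ELISA: plate-bound PY-20 anti-phosphotyrosine captures lysate, anti-c-kit plus peroxidase-labelled secondary antibody detect, read at 450 nm. Lysates come from 20 hr-arrested MO7e cells given compound for 1 hr before a 5 min 50 ng/ml h-SCF stimulus.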

T2 sequence (P10721 26-976): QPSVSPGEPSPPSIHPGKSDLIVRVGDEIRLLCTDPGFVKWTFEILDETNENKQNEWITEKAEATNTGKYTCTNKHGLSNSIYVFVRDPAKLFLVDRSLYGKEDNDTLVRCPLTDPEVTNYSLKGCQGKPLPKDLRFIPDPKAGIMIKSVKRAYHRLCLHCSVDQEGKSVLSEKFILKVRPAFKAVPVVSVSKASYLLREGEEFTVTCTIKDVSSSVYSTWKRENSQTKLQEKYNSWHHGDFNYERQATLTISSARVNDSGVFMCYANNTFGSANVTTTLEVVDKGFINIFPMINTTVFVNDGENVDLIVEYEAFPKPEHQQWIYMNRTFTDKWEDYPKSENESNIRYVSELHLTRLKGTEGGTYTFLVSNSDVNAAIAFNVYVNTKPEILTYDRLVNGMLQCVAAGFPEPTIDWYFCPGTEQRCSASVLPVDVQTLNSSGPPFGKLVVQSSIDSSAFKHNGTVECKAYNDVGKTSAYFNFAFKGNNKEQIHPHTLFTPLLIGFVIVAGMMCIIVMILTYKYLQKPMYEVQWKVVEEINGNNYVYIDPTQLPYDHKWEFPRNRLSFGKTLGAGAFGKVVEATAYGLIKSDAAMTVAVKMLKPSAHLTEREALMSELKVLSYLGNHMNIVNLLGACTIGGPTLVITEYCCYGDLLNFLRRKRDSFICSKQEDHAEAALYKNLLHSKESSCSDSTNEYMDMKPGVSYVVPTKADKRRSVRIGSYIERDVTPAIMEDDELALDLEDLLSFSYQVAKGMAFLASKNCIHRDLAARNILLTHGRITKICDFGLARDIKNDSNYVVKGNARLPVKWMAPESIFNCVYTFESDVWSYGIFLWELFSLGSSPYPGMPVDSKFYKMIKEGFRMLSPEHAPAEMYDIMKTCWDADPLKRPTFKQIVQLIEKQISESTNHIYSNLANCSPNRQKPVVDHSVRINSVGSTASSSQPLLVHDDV
T1 sequence (P16234 24-1089): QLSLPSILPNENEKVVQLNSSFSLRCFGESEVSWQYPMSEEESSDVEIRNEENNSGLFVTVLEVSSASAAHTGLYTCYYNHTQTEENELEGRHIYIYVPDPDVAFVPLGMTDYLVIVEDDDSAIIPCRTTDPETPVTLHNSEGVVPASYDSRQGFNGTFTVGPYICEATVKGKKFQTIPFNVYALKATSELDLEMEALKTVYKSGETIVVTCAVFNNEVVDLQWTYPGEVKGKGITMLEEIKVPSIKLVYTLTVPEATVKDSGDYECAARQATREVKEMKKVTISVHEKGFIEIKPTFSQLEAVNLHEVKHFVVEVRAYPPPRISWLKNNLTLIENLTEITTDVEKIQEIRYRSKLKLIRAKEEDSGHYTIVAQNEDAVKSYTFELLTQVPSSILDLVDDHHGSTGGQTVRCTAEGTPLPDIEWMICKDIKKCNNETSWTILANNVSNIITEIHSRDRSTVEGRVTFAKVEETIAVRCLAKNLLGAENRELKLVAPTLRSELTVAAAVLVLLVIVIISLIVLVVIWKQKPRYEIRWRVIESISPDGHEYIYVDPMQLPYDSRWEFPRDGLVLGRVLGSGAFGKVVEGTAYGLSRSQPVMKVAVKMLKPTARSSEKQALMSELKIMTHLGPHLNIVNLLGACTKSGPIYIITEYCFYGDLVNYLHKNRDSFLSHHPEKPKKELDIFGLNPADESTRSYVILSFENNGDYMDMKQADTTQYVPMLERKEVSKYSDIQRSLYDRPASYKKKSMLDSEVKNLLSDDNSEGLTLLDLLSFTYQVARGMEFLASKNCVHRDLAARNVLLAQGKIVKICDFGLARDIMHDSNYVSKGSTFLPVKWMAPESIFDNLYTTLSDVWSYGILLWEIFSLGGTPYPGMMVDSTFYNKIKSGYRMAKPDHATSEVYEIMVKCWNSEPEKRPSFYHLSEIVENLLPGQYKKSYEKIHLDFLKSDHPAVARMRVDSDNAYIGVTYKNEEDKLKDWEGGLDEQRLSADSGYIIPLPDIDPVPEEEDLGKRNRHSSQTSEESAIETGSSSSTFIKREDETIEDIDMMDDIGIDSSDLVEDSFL

`CCCCC(CC)OC(=O)Nc1ccc(Oc2ncnc3cc(OC)c(OC)cc23)cc1` (stereo not drawn) [Example 401, 1-Ethylpentyl N-{4-[(6,7-dimethoxy-4-quinazolinyl)oxy]phenyl}carbamate]: the results for the IC50 on PDGF-Ra and at c-kit were < 10 nM and 586 nM, respectively.

For `COc1cc2ncnc(Oc3ccc(NC(=O)Oc4ccccc4OC)cc3)c2cc1OC` [Example 403, 2-Methoxyphenyl N-{4-[(6,7-dimethoxy-4-quinazolinyl)oxy]phenyl}carbamate], the IC50 (commonly the concentration that gives 50% inhibition) at PDGF-Ra was found to be 14 nM; at c-kit, 93 nM.

In the case of `C=C(C)COC(=O)Nc1ccc(Oc2ccnc3cc(OC)c(OC)cc23)cc1` [Example 404, 2-Methylallyl N-{4-[(6,7-dimethoxy-4-quinolyl)oxy]phenyl}carbamate], the results for the IC50 at PDGF-Ra and on c-kit were < 10 nM and 81 nM, respectively.

For `C=C(C)COC(=O)Nc1cc(C)c(Oc2ccnc3cc(OC)c(OC)cc23)cc1C` [Example 405, 2-Methylallyl N-{4-[(6,7-dimethoxy-4-quinolyl)oxy]-2,5-dimethylphenyl}carbamate], the IC50 at PDGF-Ra is 46 nM; at c-kit it was 126 nM.

For `C=C(C)COC(=O)Nc1ccc(Oc2ccnc3cc(OC)c(OC)cc23)c(C)c1C` [Example 406, 2-Methylallyl N-{4-[(6,7-dimethoxy-4-quinolyl)oxy]-2,3-dimethylphenyl}carbamate], the IC50 was < 10 nM at PDGF-Ra and < 30 nM on c-kit.

`C=C(C)COC(=O)Nc1ccc(Oc2ncnc3cc(OC)c(OC)cc23)cc1` [Example 407, 2-Methylallyl N-{4-[(6,7-dimethoxy-4-quinazolinyl)oxy]phenyl}carbamate]: the IC50 came to 26 nM on PDGF-Ra and 68 nM at c-kit.

Regarding `C#CCC(CC)OC(=O)Nc1cc(C)c(Oc2ccnc3cc(OC)c(OC)cc23)cc1C` (stereo not drawn) [Example 409, 1-Ethyl-3-butynyl N-{4-[(6,7-dimethoxy-4-quinolyl)oxy]-2,5-dimethylphenyl}carbamate], the IC50 at PDGF-Ra was 26 nM; on c-kit, 392 nM.

As to `C#CCC(CC)OC(=O)Nc1ccc(Oc2ccnc3cc(OC)c(OC)cc23)c(C)c1C` (stereo not drawn) [Example 410, 1-Ethyl-3-butynyl N-{4-[(6,7-dimethoxy-4-quinolyl)oxy]-2,3-dimethylphenyl}carbamate], the IC50 was 12 nM at PDGF-Ra and 79 nM at c-kit.

With `CCCCCC(C)OC(=O)Nc1ccc(Oc2ccnc3cc(OC)c(OC)cc23)cc1` (stereo not drawn) [Example 411, 1-Methylhexyl N-{4-[(6,7-dimethoxy-4-quinolyl)oxy]phenyl}carbamate], the half-inhibitory concentration (IC50) on PDGF-Ra was 17 nM; at c-kit it was 43 nM.

For `CCCCCC(C)OC(=O)Nc1cc(C)c(Oc2ccnc3cc(OC)c(OC)cc23)cc1C` (stereo not drawn) [Example 412], the values for the IC50 on PDGF-Ra and at c-kit were 81 nM and 122 nM, respectively.

In the case of `CCCCCC(C)OC(=O)Nc1ccc(Oc2ccnc3cc(OC)c(OC)cc23)c(C)c1C` (stereo not drawn) [Example 413, 1-Methylhexyl N-{4-[(6,7-dimethoxy-4-quinolyl)oxy]-2,3-dimethylphenyl}carbamate], the IC50 at PDGF-Ra is 39 nM; on c-kit it was 50 nM.

Turning to `COc1cc2nccc(Oc3ccc(NC(=O)OCCCN4CCCCC4)c(C)c3C)c2cc1OC` [Example 415, 3-Piperidinopropyl N-{4-[(6,7-dimethoxy-4-quinolyl)oxy]-2,3-dimethylphenyl}carbamate], the results for the IC50 on PDGF-Ra and at c-kit were 24 nM and 98 nM, respectively.

On to `COc1cc2nccc(Oc3ccc(NC(=O)OCN4C(=O)c5ccccc5C4=O)c(C)c3C)c2cc1OC` [Example 418, (1,3-Dioxo-2,3-dihydro-1H-2-isoindolyl)methyl N-{4-[(6,7-dimethoxy-4-quinolyl)oxy]-2,3-dimethylphenyl}carbamate], for which the IC50 on PDGF-Ra was 26 nM; at c-kit, 401 nM.

Regarding `COc1cc2nccc(Oc3ccc(NC(=O)OCCN4C(=O)c5ccccc5C4=O)c(C)c3C)c2cc1OC` [Example 420, 2-(1,3-Dioxo-2,3-dihydro-1H-2-isoindolyl)ethyl N-{4-[(6,7-dimethoxy-4-quinolyl)oxy]-2,3-dimethylphenyl}carbamate], the IC50 is 16 nM at PDGF-Ra and 77 nM at c-kit.

As to `COc1cc2nccc(Oc3cc(C)c(NC(=O)OCCCN4CCOCC4)cc3C)c2cc1OC` [Example 422, 3-Morpholinopropyl N-{4-[(6,7-dimethoxy-4-quinolyl)oxy]-2,5-dimethylphenyl}carbamate], the IC50 was < 10 nM on PDGF-Ra and 119 nM at c-kit.

Turning to `COc1cc2nccc(Oc3ccc(NC(=O)OCCCN4CCN(C)CC4)cc3)c2cc1OC` [Example 424, 3-(4-Methylpiperazino)propyl N-{4-[(6,7-dimethoxy-4-quinolyl)oxy]phenyl}carbamate], the values for the IC50 at PDGF-Ra and on c-kit were 47 nM and 224 nM, respectively.

`COc1cc2nccc(Oc3cc(C)c(NC(=O)OCCCN4CCN(C)CC4)cc3C)c2cc1OC` [Example 425, 3-(4-Methylpiperazino)propyl N-{4-[(6,7-dimethoxy-4-quinolyl)oxy]-2,5-dimethylphenyl}carbamate]: at PDGF-Ra, the IC50 is > 100 nM and the inhibition (commonly the relative decrease from the control value, in per cent) at 0.1 µM was 5%. On c-kit, the IC50 was 464 nM.

`CCN(CC)CCCOC(=O)Nc1ccc(Oc2ccnc3cc(OC)c(OC)cc23)cc1` [Example 426, 3-(Diethylamino)propyl N-{4-[(6,7-dimethoxy-4-quinolyl)oxy]phenyl}carbamate]: the IC50 was 22 nM on PDGF-Ra and 272 nM on c-kit.

In the case of `CCN(CC)CCCOC(=O)Nc1cc(C)c(Oc2ccnc3cc(OC)c(OC)cc23)cc1C` [Example 427, 3-(Diethylamino)propyl N-{4-[(6,7-dimethoxy-4-quinolyl)oxy]-2,5-dimethylphenyl}carbamate], on PDGF-Ra, the IC50 is > 100 nM and the inhibition at 0.1 µM was 13%. In addition, at c-kit, the IC50 is 364 nM.

As to `CCN(CC)CCCOC(=O)Nc1ccc(Oc2ccnc3cc(OC)c(OC)cc23)c(C)c1C` [Example 428, 3-(Diethylamino)propyl N-{4-[(6,7-dimethoxy-4-quinolyl)oxy]-2,3-dimethylphenyl}carbamate], the results for the IC50 on PDGF-Ra and at c-kit were 64 nM and 158 nM, respectively.

`CCN(CC)CCCOC(=O)Nc1ccc(Oc2ncnc3cc(OC)c(OC)cc23)cc1` [Example 429, 3-(Diethylamino)propyl N-{4-[(6,7-dimethoxy-4-quinazolinyl)oxy]phenyl}carbamate]: the IC50 on PDGF-Ra was determined as 54 nM; on c-kit it was 603 nM.

`COc1cc2nccc(Oc3cc(C)c(NC(=O)OCc4ccccn4)cc3C)c2cc1OC` [Example 430, 2-Pyridylmethyl N-{4-[(6,7-dimethoxy-4-quinolyl)oxy]-2,5-dimethylphenyl}carbamate]: the IC50 on PDGF-Ra stood at 76 nM; on c-kit, 182 nM.

For `COc1cc2nccc(Oc3ccc(NC(=O)OCc4ccccn4)c(C)c3C)c2cc1OC` [Example 431, 2-Pyridylmethyl N-{4-[(6,7-dimethoxy-4-quinolyl)oxy]-2,3-dimethylphenyl}carbamate], the IC50 on PDGF-Ra was found to be 17 nM; on c-kit it was 43 nM.

In the case of `COc1cc2nccc(Oc3ccc(NC(=O)OCc4cccnc4)c(C)c3C)c2cc1OC` [Example 432, 3-Pyridylmethyl N-{4-[(6,7-dimethoxy-4-quinolyl)oxy]-2,3-dimethylphenyl}carbamate], the results for the IC50 at PDGF-Ra and at c-kit were 13 nM and < 30 nM, respectively.

For `COc1cc2nccc(Oc3ccc(NC(=O)OCc4ccncc4)cc3)c2cc1OC` [Example 433, 4-Pyridylmethyl N-{4-[(6,7-dimethoxy-4-quinolyl)oxy]phenyl}carbamate], the IC50 on PDGF-Ra is 11 nM; on c-kit, < 30 nM.

Regarding `COc1cc2ncnc(Oc3ccc(NC(=O)OCc4ccncc4)cc3)c2cc1OC` [Example 434, 4-Pyridylmethyl N-{4-[(6,7-dimethoxy-4-quinazolinyl)oxy]phenyl}carbamate], the results for the IC50 at PDGF-Ra and at c-kit were 20 nM and < 30 nM, respectively.

On to `CCN(CC)CCOC(=O)Nc1ccc(Oc2ccnc3cc(OC)c(OC)cc23)cc1` [Example 435, 2-(Diethylamino)ethyl N-{4-[(6,7-dimethoxy-4-quinolyl)oxy]phenyl}carbamate], for which the IC50 is 33 nM on PDGF-Ra and 445 nM on c-kit.

Consider `CCN(CC)CCOC(=O)Nc1ccc(Oc2ncnc3cc(OC)c(OC)cc23)cc1` [Example 436, 2-(Diethylamino)ethyl N-{4-[(6,7-dimethoxy-4-quinazolinyl)oxy]phenyl}carbamate], for which the IC50 at PDGF-Ra was > 100 nM; at c-kit, 878 nM. In addition, the inhibition at 0.1 µM at PDGF-Ra came out at 46%.

For `CCCC(CCN1CCOCC1)OC(=O)Nc1ccc(Oc2ccnc3cc(OC)c(OC)cc23)cc1` (stereo not drawn) [Example 437, 1-(2-Morpholinoethyl)butyl N-{4-[(6,7-dimethoxy-4-quinolyl)oxy]phenyl}carbamate], the IC50 turned out to be 48 nM at PDGF-Ra and 250 nM on c-kit.

Turning to `CCCC(CCN1CCOCC1)OC(=O)Nc1cc(C)c(Oc2ccnc3cc(OC)c(OC)cc23)cc1C` (stereo not drawn) [Example 438, 1-(2-Morpholinoethyl)butyl N-{4-[(6,7-dimethoxy-4-quinolyl)oxy]-2,5-dimethylphenyl}carbamate], on PDGF-Ra, the IC50 was > 100 nM and the inhibition at 0.1 µM was 41%. For the same molecule, the IC50 on c-kit was found to be 414 nM.

For `CCCC(CCN1CCOCC1)OC(=O)Nc1ccc(Oc2ccnc3cc(OC)c(OC)cc23)c(C)c1C` (stereo not drawn) [Example 439, 1-(2-Morpholinoethyl)butyl N-{4-[(6,7-dimethoxy-4-quinolyl)oxy]-2,3-dimethylphenyl}carbamate], the IC50 on PDGF-Ra was 52 nM; at c-kit, 224 nM.

Source of the values: patent US7135466B2 (Kirin Beer Kabushiki Kaisha, priority 1999, dated 2006).
